These results are taken from ChEMBL document CHEMBL4028831, “Improvement of hERG-ROMK index of spirocyclic ROMK inhibitors through scaffold optimization and incorporation of novel pharmacophores” (Bioorg Med Chem Lett, 2017).

The nature of series [1]: Fraction unbound in dog plasma. The series is classed as ADME, cell-free, Canis lupus familiaris.
Series [2] in a line: Unbound fraction in guinea pig plasma at 10 mg/kg administered as iv infusion. Type of series: ADME, organism-based, Cavia porcellus. The note with it: in vivo.
For another series, the target named is Cytochrome P450 2D6 (Homo sapiens, UniProt P10635). As to the kind of experiment: Inhibition of CYP2D6 (unknown origin). The series is classed as ADME.
Series [3] is described as follows: Clearance in Beagle dog at 1 mg/kg, iv. Type of series: ADME, organism-based, Canis lupus familiaris. The note with it: in vivo.
Another series deals with Cavia porcellus. Kind of series: Cardiotoxicity in anesthetized cardiovascular guinea pig model assessed as prolongation of QTc interval at 10 mg/kg administered as iv infusion relative to control. The series is classed as toxicity, organism-based. The note with it: in vivo.
Series [4] deals with T1, Inward rectifier potassium channel 2 (Homo sapiens, UniProt P63252).
T1 sequence (P63252 whole entry): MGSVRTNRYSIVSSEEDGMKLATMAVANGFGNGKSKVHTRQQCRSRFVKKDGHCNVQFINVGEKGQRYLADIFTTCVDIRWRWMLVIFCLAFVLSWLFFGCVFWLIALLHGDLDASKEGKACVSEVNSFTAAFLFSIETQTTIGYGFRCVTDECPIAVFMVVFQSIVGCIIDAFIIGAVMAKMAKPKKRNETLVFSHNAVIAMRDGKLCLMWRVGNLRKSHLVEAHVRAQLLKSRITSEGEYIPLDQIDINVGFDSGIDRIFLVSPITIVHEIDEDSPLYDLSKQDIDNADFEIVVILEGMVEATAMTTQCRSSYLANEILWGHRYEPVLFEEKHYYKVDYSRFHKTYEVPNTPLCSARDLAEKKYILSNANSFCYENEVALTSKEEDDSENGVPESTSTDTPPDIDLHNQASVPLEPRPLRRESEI
As to the kind of experiment: Inhibition of Kir2.1 (unknown origin).

Series [5] is described as follows: Fraction unbound in rat plasma. Type of series: ADME, cell-free.
A further series deals with Rattus norvegicus. Kind of series: Antihypertensive activity in rat spontaneous hypertensive model assessed as change in systolic blood pressure at 3 mg/kg, po qd measured after 3 days. Type of series: functional.
Series [6] in a line: Half life in Beagle dog at 1 mg/kg, iv. The series is classed as ADME, organism-based, Canis lupus familiaris. The note with it: in vivo.
The target of series [7] is Voltage-dependent L-type calcium channel subunit alpha-1C (Homo sapiens, UniProt Q13936). As to the kind of experiment: Inhibition of Cav1.2 (unknown origin).

SMILES strings stand for the structures. pIC50: −log10 of the molar value. Bounds are passed on as bounds.

Voltage-dependent L-type calcium channel subunit alpha-1C, sequence (Q13936 whole entry): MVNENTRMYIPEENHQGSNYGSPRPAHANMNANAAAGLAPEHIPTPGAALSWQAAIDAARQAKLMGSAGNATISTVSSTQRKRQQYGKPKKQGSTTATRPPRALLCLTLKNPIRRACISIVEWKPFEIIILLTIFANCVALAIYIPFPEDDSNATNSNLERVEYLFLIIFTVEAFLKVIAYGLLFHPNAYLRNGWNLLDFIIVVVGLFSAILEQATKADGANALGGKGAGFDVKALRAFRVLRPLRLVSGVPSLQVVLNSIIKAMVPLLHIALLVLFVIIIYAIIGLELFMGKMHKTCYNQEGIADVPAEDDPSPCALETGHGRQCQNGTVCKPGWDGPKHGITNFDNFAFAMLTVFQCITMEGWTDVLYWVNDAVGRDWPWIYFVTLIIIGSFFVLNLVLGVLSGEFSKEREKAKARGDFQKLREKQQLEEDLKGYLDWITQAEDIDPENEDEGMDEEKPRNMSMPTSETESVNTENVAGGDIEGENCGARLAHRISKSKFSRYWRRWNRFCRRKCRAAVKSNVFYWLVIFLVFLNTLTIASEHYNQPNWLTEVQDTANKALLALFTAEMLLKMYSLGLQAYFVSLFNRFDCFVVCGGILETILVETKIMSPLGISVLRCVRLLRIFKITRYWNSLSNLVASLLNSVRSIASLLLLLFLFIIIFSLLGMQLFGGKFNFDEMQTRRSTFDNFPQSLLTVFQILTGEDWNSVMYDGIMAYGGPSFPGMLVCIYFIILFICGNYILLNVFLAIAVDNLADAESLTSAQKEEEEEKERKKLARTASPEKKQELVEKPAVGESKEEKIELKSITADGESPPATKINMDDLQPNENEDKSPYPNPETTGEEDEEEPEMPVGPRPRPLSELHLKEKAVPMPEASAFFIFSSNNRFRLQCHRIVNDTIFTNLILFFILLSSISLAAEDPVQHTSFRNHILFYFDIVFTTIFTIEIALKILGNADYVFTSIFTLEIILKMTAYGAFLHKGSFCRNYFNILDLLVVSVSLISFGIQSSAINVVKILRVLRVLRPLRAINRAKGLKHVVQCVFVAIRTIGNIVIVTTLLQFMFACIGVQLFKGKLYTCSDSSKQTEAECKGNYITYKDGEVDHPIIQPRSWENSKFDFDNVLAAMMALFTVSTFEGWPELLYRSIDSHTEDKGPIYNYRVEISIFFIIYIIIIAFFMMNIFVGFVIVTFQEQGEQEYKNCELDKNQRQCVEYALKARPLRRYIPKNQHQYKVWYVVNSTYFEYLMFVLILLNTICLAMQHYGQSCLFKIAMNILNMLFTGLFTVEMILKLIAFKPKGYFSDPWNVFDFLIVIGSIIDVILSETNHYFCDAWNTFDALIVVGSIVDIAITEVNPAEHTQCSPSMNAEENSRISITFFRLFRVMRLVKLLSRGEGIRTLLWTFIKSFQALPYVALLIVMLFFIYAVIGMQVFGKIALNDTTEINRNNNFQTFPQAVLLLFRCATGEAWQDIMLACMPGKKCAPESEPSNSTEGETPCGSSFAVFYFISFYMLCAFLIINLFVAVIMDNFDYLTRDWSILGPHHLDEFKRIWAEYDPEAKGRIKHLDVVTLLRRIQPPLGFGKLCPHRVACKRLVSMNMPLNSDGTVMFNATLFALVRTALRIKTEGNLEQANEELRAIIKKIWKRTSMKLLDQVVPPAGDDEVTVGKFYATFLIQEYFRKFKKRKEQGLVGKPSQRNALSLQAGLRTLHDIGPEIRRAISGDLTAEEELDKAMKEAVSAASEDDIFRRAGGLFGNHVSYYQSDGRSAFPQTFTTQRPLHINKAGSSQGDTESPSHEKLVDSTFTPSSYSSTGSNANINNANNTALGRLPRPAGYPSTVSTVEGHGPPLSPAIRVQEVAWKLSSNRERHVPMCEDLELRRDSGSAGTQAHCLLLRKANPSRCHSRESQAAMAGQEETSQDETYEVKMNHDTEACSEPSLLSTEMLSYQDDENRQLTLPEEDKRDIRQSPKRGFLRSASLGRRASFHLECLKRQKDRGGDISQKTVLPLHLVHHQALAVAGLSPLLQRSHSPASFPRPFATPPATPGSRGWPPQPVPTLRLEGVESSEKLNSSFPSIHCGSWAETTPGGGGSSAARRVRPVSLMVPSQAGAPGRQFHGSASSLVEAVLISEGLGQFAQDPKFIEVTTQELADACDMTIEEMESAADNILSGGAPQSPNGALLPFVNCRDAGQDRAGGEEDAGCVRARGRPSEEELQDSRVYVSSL
Cytochrome P450 2D6, sequence (P10635 whole entry): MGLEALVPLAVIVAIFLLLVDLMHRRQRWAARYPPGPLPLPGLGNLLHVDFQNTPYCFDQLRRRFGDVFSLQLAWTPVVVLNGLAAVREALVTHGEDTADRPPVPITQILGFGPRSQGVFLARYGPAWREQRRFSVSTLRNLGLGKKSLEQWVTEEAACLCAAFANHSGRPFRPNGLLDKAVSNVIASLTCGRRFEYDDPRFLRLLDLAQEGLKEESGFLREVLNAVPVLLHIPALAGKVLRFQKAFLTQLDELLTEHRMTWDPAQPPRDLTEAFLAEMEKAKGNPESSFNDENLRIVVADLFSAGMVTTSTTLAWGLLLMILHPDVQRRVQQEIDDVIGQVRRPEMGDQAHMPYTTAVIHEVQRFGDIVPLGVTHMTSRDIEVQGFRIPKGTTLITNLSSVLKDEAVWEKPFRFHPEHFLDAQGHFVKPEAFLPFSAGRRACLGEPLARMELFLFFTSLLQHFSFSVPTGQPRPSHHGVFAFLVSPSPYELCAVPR

Broadly, the fraction unbound is free concentration divided by total concentration. Low values mean little free substance, high ones much free substance. A word on the pIC50: it is the IC50 on a negative log10 scale, so that one unit is a factor of ten. Usually clearance stands for a measure of how efficiently the substance is removed, as volume per time. Read a high clearance as a high capacity for elimination. The term half-life denotes the time needed for the level to fall by half in the phase considered. Lower therefore signals fast loss. As for `Cc1c([C@@H](O)CN2CCC3(CC2)CCN(c2ccc(=O)n(C)n2)C3=O)ccc2c1COC2=O`, the unbound share (fraction unbound) in series [1] is 0.405; in series [5] it was 0.455. In series [2], the “Cp(f)” value was 22.5 µM. In addition, the negative-log IC50 (pIC50) was less than 4.30 at Cytochrome P450 2D6, less than 4.00 in [4] and less than 4.52 in series [7]. This compound also had a clearance in series [3] of 18.3 mL/min/kg. The Activity is 16% in the series on Cavia porcellus and -14 mmHg in the series with Rattus norvegicus. Moreover, the half-life in series [6] was 5.8 h.
